Assays:
[1] = biological target: Epidermal growth factor receptor (Homo sapiens, UniProt P00533); experiment: Inhibition of recombinant human C-terminal His/N-terminal GST-tagged EGFR (668 to 1210 residues) expressed in baculovirus infected Sf9 cells at 10 uM using biotin-labeled poly[Glu:Tyr] (4:1) as substrate after 30 mins by Kinase-Glo plus luminescence assay relative to control
CCRF-CEM = experiment: Growth inhibition of human CCRF-CEM cells assessed as cell growth at 10 uM incubated for 48 hrs by sulforhodamine B assay relative to control; assay type: functional; conditions: read-out: Activity
K562 = experiment: Growth inhibition of human K562 cells assessed as cell growth at 10 uM incubated for 48 hrs by sulforhodamine B assay relative to control; assay type: functional; conditions: K562, 48 h, read-out: Activity
RPMI-8226 = experiment: Growth inhibition of human RPMI8226 cells assessed as cell growth at 10 uM incubated for 48 hrs by sulforhodamine B assay relative to control; assay type: functional; conditions: RPMI-8226, 48 h, read-out: Activity
A549 = experiment: Growth inhibition of human A549/ATCC cells assessed as cell growth at 10 uM incubated for 48 hrs by sulforhodamine B assay relative to control; assay type: functional; conditions: A549, 48 h, read-out: Activity
EKVX = experiment: Growth inhibition of human EKVX cells assessed as cell growth at 10 uM incubated for 48 hrs by sulforhodamine B assay relative to control; assay type: functional; conditions: read-out: Activity
HOP-62 = experiment: Growth inhibition of human HOP62 cells assessed as cell growth at 10 uM incubated for 48 hrs by sulforhodamine B assay relative to control; assay type: functional; conditions: HOP-62, 48 h, read-out: Activity
NCI-H226 = experiment: Growth inhibition of human NCI-H226 cells assessed as cell growth at 10 uM incubated for 48 hrs by sulforhodamine B assay relative to control; assay type: functional; conditions: NCI-H226, 48 h, read-out: Activity
NCI-H23 = experiment: Growth inhibition of human NCI-H23 cells assessed as cell growth at 10 uM incubated for 48 hrs by sulforhodamine B assay relative to control; assay type: functional; conditions: NCI-H23, 48 h, read-out: Activity
NCI-H460 = experiment: Growth inhibition of human NCI-H460 cells assessed as cell growth at 10 uM incubated for 48 hrs by sulforhodamine B assay relative to control; assay type: functional; conditions: NCI-H460, 48 h, read-out: Activity
COLO 205 = experiment: Growth inhibition of human COLO205 cells assessed as cell growth at 10 uM incubated for 48 hrs by sulforhodamine B assay relative to control; assay type: functional; conditions: COLO 205, 48 h, read-out: Activity
HCC 2998 = experiment: Growth inhibition of human HCC2998 cells assessed as cell growth at 10 uM incubated for 48 hrs by sulforhodamine B assay relative to control; assay type: functional; conditions: HCC 2998, 48 h, read-out: Activity
HT-29 = experiment: Growth inhibition of human HT-29 cells assessed as cell growth at 10 uM incubated for 48 hrs by sulforhodamine B assay relative to control; assay type: functional; conditions: HT-29, 48 h, read-out: Activity
KM12 = experiment: Growth inhibition of human KM12 cells assessed as cell growth at 10 uM incubated for 48 hrs by sulforhodamine B assay relative to control; assay type: functional; conditions: KM12, 48 h, read-out: Activity
SF-268 = experiment: Growth inhibition of human SF268 cells assessed as cell growth at 10 uM incubated for 48 hrs by sulforhodamine B assay relative to control; assay type: functional; conditions: SF-268, 48 h, read-out: Activity
SF-295 = experiment: Growth inhibition of human SF295 cells assessed as cell growth at 10 uM incubated for 48 hrs by sulforhodamine B assay relative to control; assay type: functional; conditions: SF-295, 48 h, read-out: Activity
SNB-75 = experiment: Growth inhibition of human SNB75 cells assessed as cell growth at 10 uM incubated for 48 hrs by sulforhodamine B assay relative to control; assay type: functional; conditions: SNB-75, 48 h, read-out: Activity
U-251 = experiment: Growth inhibition of human U251 cells assessed as cell growth at 10 uM incubated for 48 hrs by sulforhodamine B assay relative to control; assay type: functional; conditions: U-251, 48 h, read-out: Activity
SK-MEL-28 = experiment: Growth inhibition of human SK-MEL-28 cells assessed as cell growth at 10 uM incubated for 48 hrs by sulforhodamine B assay relative to control; assay type: functional; conditions: SK-MEL-28, 48 h, read-out: Activity
SK-MEL-5 = experiment: Growth inhibition of human SK-MEL-5 cells assessed as cell growth at 10 uM incubated for 48 hrs by sulforhodamine B assay relative to control; assay type: functional; conditions: SK-MEL-5, 48 h, read-out: Activity
OVCAR-5 = experiment: Growth inhibition of human OVCAR5 cells assessed as cell growth at 10 uM incubated for 48 hrs by sulforhodamine B assay relative to control; assay type: functional; conditions: OVCAR-5, 48 h, read-out: Activity
SK-OV-3 = experiment: Growth inhibition of human SKOV3 cells assessed as cell growth at 10 uM incubated for 48 hrs by sulforhodamine B assay relative to control; assay type: functional; conditions: SK-OV-3, 48 h, read-out: Activity
786-0 = experiment: Growth inhibition of human 786-0 cells assessed as cell growth at 10 uM incubated for 48 hrs by sulforhodamine B assay relative to control; assay type: functional; conditions: 786-0, 48 h, read-out: Activity
A498 = experiment: Growth inhibition of human A498 cells assessed as cell growth at 10 uM incubated for 48 hrs by sulforhodamine B assay relative to control; assay type: functional; conditions: A498, 48 h, read-out: Activity
CAKI-1 = experiment: Growth inhibition of human Caki1 cells assessed as cell growth at 10 uM incubated for 48 hrs by sulforhodamine B assay relative to control; assay type: functional; conditions: CAKI-1, 48 h, read-out: Activity
RXF 393 = experiment: Growth inhibition of human RXF393 cells assessed as cell growth at 10 uM incubated for 48 hrs by sulforhodamine B assay relative to control; assay type: functional; conditions: RXF 393, 48 h, read-out: Activity
TK-10 = experiment: Growth inhibition of human TK10 cells assessed as cell growth at 10 uM incubated for 48 hrs by sulforhodamine B assay relative to control; assay type: functional; conditions: TK-10, 48 h, read-out: Activity
DU-145 = experiment: Growth inhibition of human DU145 cells assessed as cell growth at 10 uM incubated for 48 hrs by sulforhodamine B assay relative to control; assay type: functional; conditions: DU-145, 48 h, read-out: Activity
MCF7 = experiment: Growth inhibition of human MCF7 cells assessed as cell growth at 10 uM incubated for 48 hrs by sulforhodamine B assay relative to control; assay type: functional; conditions: MCF7, 48 h, read-out: Activity
MDA-MB-231 = experiment: Growth inhibition of human MDA-MB-231 cells assessed as cell growth at 10 uM incubated for 48 hrs by sulforhodamine B assay relative to control; assay type: functional; conditions: MDA-MB-231, 48 h, read-out: Activity
Hs-578T = experiment: Growth inhibition of human Hs 578T cells assessed as cell growth at 10 uM incubated for 48 hrs by sulforhodamine B assay relative to control; assay type: functional; conditions: read-out: Activity
BT-549 = experiment: Growth inhibition of human BT549 cells assessed as cell growth at 10 uM incubated for 48 hrs by sulforhodamine B assay relative to control; assay type: functional; conditions: BT-549, 48 h, read-out: Activity

Chain of Epidermal growth factor receptor (P00533 whole entry, the tested form may be a part): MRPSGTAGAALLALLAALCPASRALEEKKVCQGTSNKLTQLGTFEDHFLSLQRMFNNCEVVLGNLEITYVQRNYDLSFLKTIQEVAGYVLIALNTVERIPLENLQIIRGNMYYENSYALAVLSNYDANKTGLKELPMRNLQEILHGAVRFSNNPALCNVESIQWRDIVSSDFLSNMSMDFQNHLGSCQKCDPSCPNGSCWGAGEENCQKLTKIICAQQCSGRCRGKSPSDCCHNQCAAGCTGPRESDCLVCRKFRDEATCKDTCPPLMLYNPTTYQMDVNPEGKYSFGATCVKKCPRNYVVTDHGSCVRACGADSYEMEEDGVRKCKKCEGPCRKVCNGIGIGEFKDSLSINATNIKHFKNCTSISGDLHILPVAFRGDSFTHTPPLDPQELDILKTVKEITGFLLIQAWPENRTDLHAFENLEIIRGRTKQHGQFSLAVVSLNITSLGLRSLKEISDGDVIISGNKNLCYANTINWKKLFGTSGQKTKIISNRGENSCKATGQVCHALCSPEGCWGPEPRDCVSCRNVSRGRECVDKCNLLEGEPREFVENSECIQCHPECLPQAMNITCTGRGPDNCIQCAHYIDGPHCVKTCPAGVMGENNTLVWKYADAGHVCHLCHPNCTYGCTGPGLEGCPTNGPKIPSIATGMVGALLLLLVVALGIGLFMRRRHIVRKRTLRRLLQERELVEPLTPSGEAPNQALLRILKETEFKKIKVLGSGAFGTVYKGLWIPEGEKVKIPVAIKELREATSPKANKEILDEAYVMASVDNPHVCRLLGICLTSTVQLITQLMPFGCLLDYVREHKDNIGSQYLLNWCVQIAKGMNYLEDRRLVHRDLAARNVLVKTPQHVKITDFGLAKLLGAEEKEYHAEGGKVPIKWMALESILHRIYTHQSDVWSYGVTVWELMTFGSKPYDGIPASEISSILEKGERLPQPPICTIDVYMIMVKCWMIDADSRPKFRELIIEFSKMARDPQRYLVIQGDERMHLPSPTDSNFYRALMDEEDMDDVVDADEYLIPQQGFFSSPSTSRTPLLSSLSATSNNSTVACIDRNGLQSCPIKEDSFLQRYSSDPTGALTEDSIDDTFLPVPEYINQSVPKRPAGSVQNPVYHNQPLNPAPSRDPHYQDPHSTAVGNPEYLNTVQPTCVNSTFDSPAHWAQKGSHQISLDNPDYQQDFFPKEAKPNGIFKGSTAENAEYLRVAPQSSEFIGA

Structure (SMILES)	inhibition [1]	growth at 10 µM (CCRF-CEM)	growth at 10 µM (K562)	growth at 10 µM (RPMI-8226)	growth at 10 µM (A549)	growth at 10 µM (EKVX)	growth at 10 µM (HOP-62)	growth at 10 µM (NCI-H226)	growth at 10 µM (NCI-H23)	growth at 10 µM (NCI-H460)	growth at 10 µM (COLO 205)	growth at 10 µM (HCC 2998)	growth at 10 µM (HT-29)	growth at 10 µM (KM12)	growth at 10 µM (SF-268)	growth at 10 µM (SF-295)	growth at 10 µM (SNB-75)	growth at 10 µM (U-251)	growth at 10 µM (SK-MEL-28)	growth at 10 µM (SK-MEL-5)	further results
CCOC(=O)c1c(C)oc2ncnc(Nc3ccc(OCc4cccc(C)c4)cc3)c12	6%	107%	98%	117%	88.9%	94.5%	101%	101%	94.9%	95.5%	100%	114%	87.5%	96.1%	106%	101%	106%	96.4%	101%	99.2%	growth at 10 µM (OVCAR-5): 107%; growth at 10 µM (SK-OV-3): 96.7%; growth at 10 µM (786-0): 103%; growth at 10 µM (A498): 84.4%; growth at 10 µM (CAKI-1): 95.6%; growth at 10 µM (RXF 393): 111%; growth at 10 µM (TK-10): 94.7%; growth at 10 µM (DU-145): 101%; growth at 10 µM (MCF7): 99.2%; growth at 10 µM (MDA-MB-231): 88.6%; growth at 10 µM (Hs-578T): 102%; growth at 10 µM (BT-549): 106%
CCOC(=O)c1c(C)oc2ncnc(Nc3ccc(OCc4ccc(Cl)c(Cl)c4)cc3)c12	0%	110%	93.8%	117%	95.8%	102%	101%	94.4%	95.8%	102%	111%	109%	99.7%	102%	104%	94.7%	102%	104%	102%	103%	growth at 10 µM (OVCAR-5): 95%; growth at 10 µM (SK-OV-3): 98.9%; growth at 10 µM (786-0): 94.3%; growth at 10 µM (A498): 92.3%; growth at 10 µM (CAKI-1): 96.1%; growth at 10 µM (RXF 393): 101%; growth at 10 µM (TK-10): 88.5%; growth at 10 µM (DU-145): 108%; growth at 10 µM (MCF7): 106%; growth at 10 µM (MDA-MB-231): 84.3%; growth at 10 µM (Hs-578T): 104%; growth at 10 µM (BT-549): 94.9%
Cc1oc2ncnc(Nc3cccc(Cl)c3)c2c1CO	69%	100%	85.4%	70.4%	82.1%	64.4%	89%	80.6%	87.5%	94%	93.9%	93.2%	90.5%	91.4%	92.9%	93.2%	86.5%	92.3%	106%	87.9%	growth at 10 µM (OVCAR-5): 74.3%; growth at 10 µM (SK-OV-3): 101%; growth at 10 µM (786-0): 78.3%; growth at 10 µM (A498): 51.6%; growth at 10 µM (CAKI-1): 53.7%; growth at 10 µM (RXF 393): 85.4%; growth at 10 µM (TK-10): 65.2%; growth at 10 µM (DU-145): 86.2%; growth at 10 µM (MCF7): 89.7%; growth at 10 µM (MDA-MB-231): 76.5%; growth at 10 µM (Hs-578T): 96.2%; growth at 10 µM (BT-549): 81.9%
CCCNC(=O)c1c(C)oc2ncnc(Nc3cccc(Cl)c3)c12	65%	93.9%	90.1%	95.4%	82.7%	98.8%	87.7%	90%	91.5%	107%	104%	123%	93.8%	94.6%	95.5%	90.1%	94.6%	90.9%	112%	89.9%	growth at 10 µM (OVCAR-5): 112%; growth at 10 µM (SK-OV-3): 85.6%; growth at 10 µM (786-0): 105%; growth at 10 µM (A498): 74.3%; growth at 10 µM (CAKI-1): 101%; growth at 10 µM (RXF 393): 111%; growth at 10 µM (TK-10): 94.1%; growth at 10 µM (DU-145): 90%; growth at 10 µM (MCF7): 93.5%; growth at 10 µM (MDA-MB-231): 88.2%; growth at 10 µM (Hs-578T): 104%; growth at 10 µM (BT-549): 102%

From ChEMBL document CHEMBL4251615, “Discovery of anilino-furo[2,3-d]pyrimidine derivatives as dual inhibitors of EGFR/HER2 tyrosine kinase and their anticancer activity” (Eur J Med Chem, 2018)
